Measured values taken from ChEMBL document CHEMBL1127238, “The discovery of L-699,392, a novel potent and orally active leukotriene D4 receptor antagonist” (Bioorg Med Chem Lett, 1994).

How the values were obtained:
[1] = target: T1, Cysteinyl leukotriene receptor 1 (Cavia porcellus, UniProt Q2NNR5); test: Inhibitory activity against binding of [3H]LTD4 to Cysteinyl leukotriene D4 receptor in guinea pig lung membranes; type: cell membranes, Membrane
T1 sequence (Q2NNR5 whole entry): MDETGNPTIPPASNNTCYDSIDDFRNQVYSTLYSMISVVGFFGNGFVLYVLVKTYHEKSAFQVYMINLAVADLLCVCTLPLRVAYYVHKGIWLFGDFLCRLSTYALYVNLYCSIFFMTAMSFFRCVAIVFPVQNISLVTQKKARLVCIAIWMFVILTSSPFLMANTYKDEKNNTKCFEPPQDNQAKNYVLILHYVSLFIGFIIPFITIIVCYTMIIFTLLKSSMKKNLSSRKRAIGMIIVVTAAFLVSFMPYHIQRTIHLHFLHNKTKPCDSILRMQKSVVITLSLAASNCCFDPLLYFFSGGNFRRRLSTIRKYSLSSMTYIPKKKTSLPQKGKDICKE

[2] = Compound was tested for plasma clearance in rats after 5 mg/kg of intravenous dosing; type: ADME, organism-based; parameters: dose 5 mg/kg, route intravenous; conditions: rat
[3] = Apparent bioavailability in squirrel monkey was determined; type: ADME, organism-based; conditions: in vivo; read-out: Bioavailabiility

Structure (SMILES)	IC50 [1] [nM]	clearance [2] [mL/min/kg]	bioavailability [3] [%]
COC(=O)c1cccc(CC[C@H](SC[C@@H](C)C(=O)O)c2cccc(/C=C/c3ccc4ccc(Cl)cc4n3)c2)c1	7	6	–
CCOC(=O)c1ccccc1CC[C@H](SC[C@@H](C)C(=O)O)c1cccc(/C=C/c2ccc3ccc(Cl)cc3n2)c1	3.7	4.8	–
C[C@H](CS[C@@H](CCc1ccccc1C=O)c1cccc(/C=C/c2ccc3ccc(Cl)cc3n2)c1)C(=O)O	2	6	–
CC(=O)c1ccccc1CC[C@H](SC[C@@H](C)C(=O)O)c1cccc(/C=C/c2ccc3ccc(Cl)cc3n2)c1	3	11	52
C[C@H](CS[C@@H](CCc1ccccc1C(=O)c1ccccc1)c1cccc(/C=C/c2ccc3ccc(Cl)cc3n2)c1)C(=O)O	4.3	18	–
CCC(=O)c1ccccc1CC[C@H](SC[C@@H](C)C(=O)O)c1cccc(/C=C/c2ccc3ccc(Cl)cc3n2)c1	3.7	13	–
C[C@H](CS[C@@H](CCc1ccccc1CO)c1cccc(/C=C/c2ccc3ccc(Cl)cc3n2)c1)C(=O)O	3.1	5	–
CC(=O)c1cccc(CC[C@H](SC[C@@H](C)C(=O)O)c2cccc(/C=C/c3ccc4ccc(Cl)cc4n3)c2)c1	5.9	2	–
C[C@H](CS[C@@H](CCc1cccc(CO)c1)c1cccc(/C=C/c2ccc3ccc(Cl)cc3n2)c1)C(=O)O	2.1	2.5	–
C[C@H](CS[C@@H](CCc1ccccc1CC(C)(C)O)c1cccc(/C=C/c2ccc3ccc(Cl)cc3n2)c1)C(=O)O	1	33	–
C[C@H](CS[C@@H](CCc1ccccc1C(C)(C)O)c1cccc(/C=C/c2ccc3ccc(Cl)cc3n2)c1)C(=O)O	2.7	14	–
